Assays:
isolated rat detrusor = assay: Contraction inhibiting activity in isolated rat detrusor (40 mM KCl); assay type: cell-based
Description: Male Wistar rats weighing 200 to 300 g were used. The method used is described by Zhou Q. et al. (1995) (see Example 13). After sacrificing the rats by cervical displacement the urinary bladder was isolated and horizontal strips of detrusor muscle about 2 mm wide and about 5 mm long were obtained from the median region. The strips were placed in baths for isolated organs containing Krebs liquid and subjected to a 1 g tension. Tension variations during the test were measured isometrically by using a pressure transducer connected to a polygraph. The inhibitory effect of a pre-treatment with the test derivatives on contraction induced by 40 mM KCl was determined versus drugs having an opening potassium channel activity (cromakalin, nicorandil) nitroderivatives (nitroglycerin, nicorandil) and anti-inflammatories (indomethacin, naproxen, nimesulide).

[1] = tested on: pig urethral smooth muscle; assay: Relaxing effect in pig urethral smooth muscle; assay type: cell-based; details: 10^−5 M; for Relaxation % 1: first treatment; for Relaxation % 1 / Relaxation % 2: 100% = highest relaxation in medium without Ca++; for Relaxation % 2: second consecutive treatment; for relaxing activity and tachyphylaxis (in words): two consecutive treatments
Description: Samples of urethra were removed from female pigs about 6 months old.
The urethra was opened longitudinally and samples of smooth muscle about 1×2×6 mm in size were removed from an area about 4 mm below ureteral orifices. The samples of smooth muscle were placed in baths for isolated organs, incubated at 37° C. and subjected to a 10 mN tension and connected to a force transducer for measuring mechanical activity. After a period of balancing of about 60 minutes, the prepared samples were exposed to Krebs solution without Ca++ to determine the highest relaxation level. Normal tone was then restored by adding Krebs solution. The relaxation effects of the test derivatives were then measured. The test wasa repeated two consecutive times for each prepared sample in order to evaluate any tachyphylaxis effects.

[2] = tested on: normal urinary bladder of conscious dogs; assay: Cystometrogram, normal urinary bladder of conscious dogs; assay type: in vivo, dog; details: 4 hours following dosing, IC=interval between contractions
Description: The cystometrogram of conscious dogs was determined in accordance with the method described by Howe B. B. et al., ZENECA ZD 6169: a NOVEL KATP Channel opener with in vivo selectivity for urinary bladder, Journal of Pharmacology and Experimental Therapeutics, 274, 884-890, 1995.
Female Beagle dogs with urinary bladder catheterised through the urethra by operating in sterile conditions, were used. Catheters were connected to a perfusor which perfused into the urinary bladder a physiological solution and to a pressure transducer in order to measure intravesical pressure. After 15 minute stabilisation, a 30 ml bolus of physiological solution was perfused into the urinary bladder in order to measure increased intravesical pressure and a series of smaller boluses were then perfused until spontaneous contractions were observed. After a period of contraction stabilisation, contracting activity was monitored for 60 minutes. The animals were then treated orally with the test products and urination frequency was then measured during 4 hours following dosing in […].

[3] = tested on: rat femoral artery strips; assay: Relaxing activity on vessel smooth muscle (phenylephrine-contracted femoral artery strips); assay type: cell-based; details: contractions induced by 3×10^−5 M phenylephrine
Text: Male Wistar rats weighing 200 to 300 g were used. The method used is described by Zhou Q. et al. The inhibitory mechanism of nicorandil in isolated rat urinary bladder and femoral artery, European Journal of Pharmacology, 153-159, 1995. After sacrifing the rats by cervical displacement, the femoral arteries were isolated for the preparation of helicoidal strips about 1×15 mm in size, from which the endothelium was removed. The prepared strips were placed in baths for isolated organs containing Krebs liquid and subjected to a weight of 0.5 g. Tension variations during the test were isometrically measured by means of a pressure transducer connected to a polygraph. The inhibitory effect of a treatment with the test derivatives on contractions induced by 3×10^−5 M phenylephrine versus reference preparations having a potassium channel opening activity and/or NO donors was measured.

[4] = tested on: hypertrophic urinary bladder strips; assay: Electrically induced contraction of urinary bladder strips, rats with vesical hypertrophy; assay type: cell-based, rat; details: 10^−6 M; hypertrophic tissue; 1/7 Hz electrical stimulation
Text: (§1) The vesical hypertrophy model secondary to urethral obstruction in rats described by Malmgren A. et al.: Cystometrical evaluation of bladder instability in rats with intravesical outflow obstruction, The Journal of Urology, 1987, 137, 1291-1294, was used in order to evaluate the effect of the drugs on hyperactive vesical muscle.
(§2) Male Sprague Dawley rats weighing about 250 g were used. In order to obtain partial urethral obstruction, the rats were anaesthetised with Nembutal and the urinary bladder and urethra were exposed by abdominal incision. A ligature was made around the urethra in the presence of an intraluminal cannula with 1 mm diameter. After suturing the abdominal wall the animals were stabulated for 6 weeks in order for vesical hypertrophy to start.
(§3) The in vitro experiments were conducted with the parallel use of strips obtained from normal rats and rats with vesical hypertrophy.
(§4) The in vitro urinary bladder strips were prepared as described above and the inhibition induced by the drugs on contraction induced by 1/7 Hz electrical stimulation lasting 1 msec., an above maximal voltage, produced by two platinum electrodes, was measured.

[5] = tested on: normal urinary bladder strips; assay: Electrically induced contraction of urinary bladder strips, normal rats; assay type: cell-based, rat; details: 10^−6 M; normal tissue; 1/7 Hz electrical stimulation
Text: as §1, §2, §3, §4

nitroxy-sinthetase = biological target: T1, nitroxy-sinthetase (Rattus norvegicus, UniProt Q06518); assay: LPS-induced nitroxysynthetase activity in rat neutrofils after i.p. dosing; assay type: in vivo; details: 10 mg/kg i.p.; LPS 5 mg/kg i.v.; rat neutrofils four hours later; compared to the group treated with the vehicle alone
T1 construct: Blood was collected for neutrofil isolation; from tissue; host or cells: neutrophils isolated from blood of LPS-treated Wistar rats
Description: The nitroxy-sinthetase inhibiting activity induced by lipopolisaccharide (LPS) was determined in rat neutrofils after administration of any of the test compounds and compared with that obtained after treatment with the suspending vehicle alone (0.5% carboxymethyl cellulose, 5 ml/kg) and a product used as comparison. Briefly, Wistar rats fasted for 24 hours before treatment received one of the test compounds (10 mg/kg) intraperitoneally or the vehicle LPS (5 mg/kg) intravenously (caudal vein).
Four hours later the animals were sacrified. Blood was collected for neutrofil isolation.
The enzymatic activity was determined according to the od described by Assreuy J. et al. Feedback inhibition of nitric oxide sinthase activity by nitric oxide, British Journal of Pharmacology, […], 1993.

[6] = tested on: gastroenteric tract of rats; assay: In vivo gastrointestinal safety study; set-up: species or system rat
Text: Forty Sprague Dawley rats weighing about 300 g were randomly divided into 4 groups and orally treated twice a day for 4 days according to the following experimental scheme:
Eighteen hours after the last treatment the rats were sacrified to determine any gastrointestinal damage.

[7] = tested on: normal urinary bladders of anaesthetised rats; assay: Urinary bladder voiding reflex in anaesthetised rats; assay type: in vivo, rat; details: 18 hours after last treatment, controls = 100
Description: 40 Sprague Dawley rats weighing about 300 g were randomly divided into 4 groups and orally treated twice a day for 4 days according to the following experimental scheme: 18 hours after the last treatment, the effects on the urinary bladder voiding reflex were evaluated using the method described by Maggi C. A. et al., Prostanoids modulate reflex micturition by acting through capsaicin-sensitive afferents, European Journal of Pharmacology, 105-112, 1988. The animals were anaesthetised with urethane, the urinary bladder was prepared for intraluminal pressure measurement. After a stabilisation period with an empty urinary bladder, this was progressively filled with a physiological solution by slow infusion (0.046 ml/min). A contraction of the urinary bladder was observed upon reflex triggering. The volume of physiological solution and intraluminal pressure required to evoke the reflex (volume and pressure thresholds) were measured. […] All tested products increased this threshold and can, therefore, be considered useful in case of detrusor instability.

[8] = tested on: normal urinary bladder of conscious rats; assay: Cystometrogram, normal urinary bladder of conscious rats; assay type: in vivo, rat; details: 5 mg/kg oral, 4 hours after dosing, IC=interval between contractions
Description: Cystometrograms of conscious rats were determined according to the method described by Howe B. B et al. (1995) (see Example 9).
Male Wistar rats weighing about 500 g were used. The rats were anaesthetised with Nembutal. After opening their abdomen and exposing their urinary bladder, a catheter filled with physiological solution was implanted in the urinary bladder and caused to emerge from the back of the animals. The abdominal muscle and skin were then sutured. 48 hours after surgery the animals were placed in metabolic cages and the catheters were connected to a perfusor which perfused 0.18 ml/min of a physiological solution into the urinary bladder, and to a pressure transducer in order to measure intravesical pressure. After stabilisation for 60 minutes, the animals were orally treated with the test products and urination frequency was than measured during 4 hours after dosing.

[9] = Rattus norvegicus, 10^−4 M, contraction induced by 40 mM KCl
[10] = 5 mg/kg oral twice a day for 4 days
[11] = 3 mg/kg oral twice a day for 4 days, rats
[12] = 3 mg/kg oral twice a day for 4 days

| SMILES | inhibition at 100 µM (isolated rat detrusor; [9]) [%] | Relaxation % 1 [1] [%] | Relaxation % 2 [1] [%] | relaxing activity and tachyphylaxis (in words) [1] | IC treated/IC baseline ([2]; 3 mg/kg oral) | IC treated/IC baseline [8] | further results |
| --- | --- | --- | --- | --- | --- | --- | --- |
| CS(=O)(=O)Nc1ccc([N+](=O)[O-])cc1Oc1ccccc1 [Nimesulide] | 41.8 |  |  |  |  |  |  |
| O=[N+]([O-])OCC(CO[N+](=O)[O-])O[N+](=O)[O-] [Nitroglycerin] |  | 32.1 | 7.3 | active but induced tachyphylaxis |  |  | inhibition at 10 µM (isolated rat detrusor; Rattus norvegicus): 28.7% |
| N=C(N)NCCC[C@H](N)C(=O)O [L-arginine] |  | 22.7 | 12.2 | active but induced tachyphylaxis |  |  |  |
| CC1(C)Oc2ccc(C#N)cc2C(N2CCCC2=O)C1O (centres unmarked) [Cromakalim] |  |  |  |  |  |  | IC treated/IC baseline ([2]; 0.5 mg/kg oral): 1.48; inhibition at 0.3 µM ([3]; Rattus norvegicus, 3 × 10^−7 M): 54.1%; Contraction % [4]: 35.7%; Contraction % [5]: 50.5%; inhibition at 1 µM (isolated rat detrusor; Rattus norvegicus, 10^−6 M, contraction induced by 40 mM KCl): 33.3% |
| CS(=O)(=O)N(C(=O)CCCCCO[N+](=O)[O-])c1ccc([N+](=O)[O-])cc1Oc1ccccc1 [NO-M, N-[(2-PHENOXY-4-NITRO)PHENYL]-N-(6-NITROXY)HEXANOYLMETHANE-SULPHONAMIDE] |  |  |  |  |  |  | Inhibition % ([3]; 10^−4 M): 19.5%; Inhibition % (isolated rat detrusor; 10^−4 M, contraction induced by 40 mM KCl): 48.1% |
| O=C(Oc1cccc(CO[N+](=O)[O-])c1)c1ccccc1Nc1cccc(C(F)(F)F)c1 [NO-F] |  | 45.8 | 52.1 |  | 1.76 | 1.62 | NITROXY-SYNTHETASE ACTIVITY (nitroxy-sinthetase): 63 percentage; gastrointestinal damage (in words) ([6]; 5 mg/kg oral twice a day for 4 days, group of 10 rats): one animal with a gastric ulcer and an animal with a duodenal ulcer; Pressure threshold (%) [7, 10]: 203%; Volume threshold (%) [7, 10]: 205% |
| COc1ccc2c(c1)c(CC(=O)O)c(C)n2C(=O)c1ccc(Cl)cc1 [Indomethacin] | 38.5 | 1.0 | 1.2 | practically inactive | 1.25 | 1.34 | Contraction % [4]: 76.3%; animals with diffuse adherences [6, 11]: 3/10; animals with ulceration also in the intestines [6, 11]: 7/19; gastrointestinal damage (in words) [6, 11]: ulceration was observed in the stomachs; Pressure threshold (%) [7, 12]: 190%; Volume threshold (%) [7, 12]: 198%; Contraction % [5]: 78.2% |
| COc1ccc2cc([C@H](C)C(=O)O)ccc2c1 [Naproxen] |  |  |  |  |  |  | inhibition at 100 µM (isolated rat detrusor; Rattus norvegicus, 5 · 10^−4 M, contraction induced by 40 mM KCl): 15.2% |
| COc1ccc2c(c1)c(CC(=O)Oc1cccc(CO[N+](=O)[O-])c1)c(C)n2C(=O)c1ccc(Cl)cc1 [NO-I] | 46.3 | 39.3 | 37.2 |  | 1.43 | 1.48 | inhibition at 100 µM ([3]; Rattus norvegicus, 10^−4 M): 22.2%; Contraction % [4]: 40.3%; animals with gastric ulcers ([6]; 3 mg/kg oral twice a day for 4 days, group of 10 rats): 1; Pressure threshold (%) [7, 12]: 223%; Volume threshold (%) [7, 12]: 226%; Contraction % [5]: 61.5% |
| O=C(O)c1ccccc1Nc1cccc(C(F)(F)F)c1 [Flufenamic acid, 2-[[3-(trifluoromethyl)phenyl]-amino]benzoic acid] |  | 12.2 | 13.2 | has itself a myorelaxing activity | 1.42 | 1.42 | NITROXY-SYNTHETASE ACTIVITY (nitroxy-sinthetase): 98 percentage |
| O=C(NCCO[N+](=O)[O-])c1cccnc1 [Nicorandil] | 26.4 |  |  |  |  |  | inhibition at 1 µM ([3]; Rattus norvegicus, 10^−6 M): 32.6% |

— patent US7544711B2, “Use of nitroderivatives in urinary incontinence” (Nicox S.A., priority 1996, dated 2009)
